According to patent US20080181866A1, “Amido Anti-viral Compounds” (Genelabs Technologies, Inc., priority 2006, published 2008):

What follows are compounds tested on HCV replication (assay: HCV replicon assay (luciferase) in ET (Huh-lucubineo-ET) cell line). Details: Hepatitis C virus, tested at 5 μM; ET replicon cells; luciferase activity measured 48-72 hours later; relative to no compound control.
Assay type: cell-based
Outline: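 Huh-lucubineo-ET cells stably carry a subgenomic replicon with a firefly luciferase–ubiquitin–neo fusion and adaptive NS3-5B mutations; they were seeded 24 h before compound addition (0.1 nM–50 μM, 0.5% DMSO). Luciferase was read 48–72 h later as % inhibition versus no-compound control, with parallel WST-1 cytotoxicity. EC50 and TC50 came from 10-point 2-fold dilutions fitted to a Hill equation.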

SMILES	inhibition at 5 µM [%]
O=C(NC1CC1)c1ccc(-c2csc(NC(=O)[C@@H]3CSC(Cc4ccccc4)N3C(=O)OCc3ccccc3)n2)cc1 (some centres unmarked) [Compound 7101, 2-Benzyl-4-[4-(4-cyclopropylcarbamoyl-phenyl)-thiazol-2-ylcarbamoyl]-thiazolidine-3-carboxylic acid benzyl ester]	98.4
O=C(NC1CC1)c1ccc(-c2csc(NC(=O)[C@@H]3CSC(C4CCOCC4)N3C(=O)CC3CC3)n2)cc1 (some centres unmarked) [Compound 7104, 3-(2-Cyclopropyl-acetyl)-2-(tetrahydropyran-4-yl)-thiazolidine-4-carboxylic acid [4-(4-cyclopropylcarbamoyl-phenyl)-thiazol-2-yl]-amide]	100
CN(C(=O)[C@@H]1CSC(c2ccncc2)N1C(=O)OCc1ccccc1)c1nc(-c2ccc(C(=O)NC3CC3)cc2)cs1 (some centres unmarked) [Compound 7106, 4-{[4-(4-Cyclopropylcarbamoyl-phenyl)-thiazol-2-yl]-methyl-carbamoyl}-2-pyridin-4-yl-thiazolidine-3-carboxylic acid benzyl ester]	32.9
O=C(NC1CC1)c1ccc(NC(=O)[C@@H]2CSC(C3CCOCC3)N2C(=O)OCc2ccccc2)cc1 (some centres unmarked) [Compound 7107, 4-(4-Cyclopropylcarbamoyl-phenylcarbamoyl)-2-(tetrahydro-pyran-4-yl)-thiazolidine-3-carboxylic acid benzyl ester]	10
COC(=O)CCCCC1SC[C@@H](C(=O)Nc2nc(-c3ccc(C(=O)NC4CC4)cc3)cs2)N1C(=O)OCc1ccccc1 (some centres unmarked) [Compound 7108, 4-[4-(4-Cyclopropylcarbamoyl-phenyl)-thiazol-2-ylcarbamoyl]-2-(4-methoxycarbonyl-butyl)-thiazolidine-3-carboxylic acid benzyl ester]	99.9
O=C(Nc1ccc(CNS(=O)(=O)c2ccccc2)cc1)[C@@H]1CSC(c2ccncc2)N1C(=O)OCc1ccccc1 (some centres unmarked) [Compound 7111, 4-[4-(Benzenesulfonylamino-methyl)-phenylcarbamoyl]-2-pyridin-4-yl-thiazolidine-3-carboxylic acid benzyl ester]	43
CN1CCC2(CC1)SC[C@@H](C(=O)Nc1nc(-c3ccc(C(=O)NC4CC4)cc3)cs1)N2C(=O)OCc1ccccc1 [Compound 7114, 3-[4-(4-Cyclopropylcarbamoyl-phenyl)-thiazol-2-ylcarbamoyl]-8-methyl-1-thia-4,8-diaza-spiro[4.5]decane-4-carboxylic acid benzyl ester]	100
O=C(Cc1cccc(NC(=O)[C@@H]2CSC(c3ccncc3)N2C(=O)OCc2ccccc2)c1)NCc1ccccc1 (some centres unmarked) [Compound 7116, 4-[3-(Benzylcarbamoyl-methyl)-phenylcarbamoyl]-2-pyridin-4-yl-thiazolidine-3-carboxylic acid benzyl ester]	84.9
Cc1ccc2[nH]c(Cc3ccc(NC(=O)[C@@H]4CSC(c5ccncc5)N4C(=O)OCc4ccccc4)cc3)nc2c1 (some centres unmarked) [Compound 7117, 4-[4-(5-Methyl-1H-benzoimidazol-2-ylmethyl)-phenylcarbamoyl]-2-pyridin-4-yl-thiazolidine-3-carboxylic acid benzyl ester]	42.4
CN(C)C(=O)CCC1SC[C@@H](C(=O)Nc2nc(-c3ccc(C(=O)NC4CC4)cc3)cs2)N1C(=O)OCc1ccccc1 (some centres unmarked) [Compound 7118, 4-[4-(4-Cyclopropylcarbamoyl-phenyl)-thiazol-2-ylcarbamoyl]-2-(2-dimethylcarbamoyl-ethyl)-thiazolidine-3-carboxylic acid benzyl ester]	99.9
O=C(Cc1ccc(NC(=O)[C@@H]2CSC(c3ccncc3)N2C(=O)OCc2ccccc2)cc1)NCCc1ccccc1 (some centres unmarked) [Compound 7119, 4-[4-(Phenethylcarbamoyl-methyl)-phenylcarbamoyl]-2-pyridin-4-yl-thiazolidine-3-carboxylic acid benzyl ester]	1.2
CC(=O)c1cccc(C2SC[C@@H](C(=O)Nc3nc(-c4ccc(C(=O)NC5CC5)cc4)cs3)N2C(=O)OCc2ccccc2)c1 (some centres unmarked) [Compound 7120, 2-(3-Acetyl-phenyl)-4-[4-(4-cyclopropylcarbamoyl-phenyl)-thiazol-2-ylcarbamoyl]-thiazolidine-3-carboxylic acid benzyl ester]	100
COC(=O)CCC1SC[C@@H](C(=O)Nc2nc(-c3ccc(C(=O)NC4CC4)cc3)cs2)N1C(=O)OCc1ccccc1 (some centres unmarked) [Compound 7121, 4-[4-(4-Cyclopropylcarbamoyl-phenyl)-thiazol-2-ylcarbamoyl]-2-(2-methoxycarbonyl-ethyl)-thiazolidine-3-carboxylic acid benzyl ester]	99.8
O=C(NC1CC1)c1ccc(-c2csc(NC(=O)[C@@H]3CSC(C4CCOC4)N3C(=O)OCc3ccccc3)n2)cc1 (some centres unmarked) [Compound 7122, 4-[4-(4-Cyclopropylcarbamoyl-phenyl)-thiazol-2-ylcarbamoyl]-2-(tetrahydro-furan-3-yl)-thiazolidine-3-carboxylic acid benzyl ester]	100
O=C(Cc1ccc(NC(=O)[C@@H]2CSC(c3ccncc3)N2C(=O)OCc2ccccc2)cc1)Nc1ccccc1 (some centres unmarked) [Compound 7126, 4-(4-Phenylcarbamoylmethyl-phenylcarbamoyl)-2-pyridin-4-yl-thiazolidine-3-carboxylic acid benzyl ester]	93.8
NC(=O)c1cccc(NC(=O)[C@@H]2CSC(c3ccncc3)N2C(=O)OCc2ccccc2)c1 (some centres unmarked) [Compound 7127, 4-(3-carbamoyl-phenylcarbamoyl)-2-pyridin-4-yl-thiazolidine-3-carboxylic acid benzyl ester]	25.7
COc1ccc(CNC(=O)Cc2cccc(NC(=O)[C@@H]3CSC(c4ccncc4)N3C(=O)OCc3ccccc3)c2)cc1 (some centres unmarked) [Compound 7128, 4-{3-[(4-Methoxy-benzylcarbamoyl)-methyl]-phenylcarbamoyl}-2-pyridin-4-yl-thiazolidine-3-carboxylic acid benzyl ester]	97.5
NC(=O)c1ccc(NC(=O)[C@@H]2CSC(c3ccncc3)N2C(=O)OCc2ccccc2)cc1 (some centres unmarked) [Compound 7134, 4-(4-carbamoyl-phenylcarbamoyl)-2-pyridin-4-yl-thiazolidine-3-carboxylic acid benzyl ester]	13.6
O=C(Cc1cccc(NC(=O)[C@@H]2CSC(c3ccncc3)N2C(=O)OCc2ccccc2)c1)NCCc1ccccc1 (some centres unmarked) [Compound 7136, 4-[3-(Phenethylcarbamoyl-methyl)-phenylcarbamoyl]-2-pyridin-4-yl-thiazolidine-3-carboxylic acid benzyl ester]	90
O=C(NCCN1CCOCC1)c1ccc(-c2csc(NC(=O)[C@@H]3CSC4(CCOCC4)N3C(=O)OCc3ccccc3)n2)cc1 [Compound 7138, 3-{4-[4-(2-Morpholin-4-yl-ethylcarbamoyl)-phenyl]-thiazol-2-ylcarbamoyl}-8-oxa-1-thia-4-aza-spiro[4.5]decane-4-carboxylic acid benzyl ester]	100
O=C(Nc1cccnc1)c1ccc(-c2csc(NC(=O)[C@@H]3CSC4(CCOCC4)N3C(=O)OCc3ccccc3)n2)cc1 [Compound 7139, 3-{4-[4-(Pyridin-3-ylcarbamoyl)-phenyl]-thiazol-2-ylcarbamoyl}-8-oxa-1-thia-4-aza-spiro-[4.5]decane-4-carboxylic acid benzyl ester]	100
O=C(Nc1cccnc1)c1ccc(-c2csc(NC(=O)[C@@H]3COC4(CCOCC4)N3C(=O)OCc3ccccc3)n2)cc1 [Compound 7140, 3-{4-[4-(Pyridin-3-ylcarbamoyl)-phenyl]-thiazol-2-ylcarbamoyl}-1,8-dioxa-4-aza-spiro[4.5]decane-4-carboxylic acid benzyl ester]	99.9
O=C(NCCN1CCOCC1)c1ccc(-c2csc(NC(=O)[C@@H]3COC4(CCOCC4)N3C(=O)OCc3ccccc3)n2)cc1 [Compound 7141, 3-{4-[4-(2-Morpholin-4-yl-ethylcarbamoyl)-phenyl]-thiazol-2-ylcarbamoyl}-1,8-dioxa-4-aza-spiro[4.5]decane-4-carboxylic acid benzyl ester]	100
